Experimental findings from PubChem BioAssay AID602296 (Broad Institute, 2012) are described below.

The experiment concerns NIH3T3-HGL HSF-1 response element luciferase, 48 h. Briefly: HSF-1 reporter activators over prolonged exposure, confirmation, cell-based, mouse, luciferase, cherry-pick, dose (AID 602296).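 Further: test compounds applied by themselves with no MG132 co-treatment.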

Structures are written as SMILES. Inconclusive results are not listed. Activity calls are given as the source filed them.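 How the source made its calls: active means fitted activation curve crossing 40% at a concentration no higher than the sample's top valid tested dose; inconclusive means flat fitted curve at 30% to 70% activation, or poor curve fit; inactive means signal decrease, flat curve within 30%, or the rest.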

For `O[C@@H]1C2CCCC1[C@]1(O)CCCCC1C2` (some centres not stated), the AC40 was > 26 µM (inactive).

In the case of `Cc1nn(C(CC(=O)O)C(=O)O)c(C)c1Br` (configuration not stated), the AC40 is > 26 µM (inactive). The result for `O=C(O)c1c(Cl)c(Cl)c(Cl)c(Cl)c1C(=O)N1CCCC1` reads > 26 µM (inactive); that for `O=C(NNc1cccc(Cl)n1)Nc1ccc(Cl)cc1`, > 26 µM (inactive). The result for `CCOC(=O)c1sc(C)c2c1NC(C)(c1cccc3ccccc13)NC2=O` (configuration not stated) reads > 26 µM (inactive); that for `Cc1ccc(N2Cc3ccccc3OC(C)C2=O)cc1` (configuration not stated), > 26 µM (inactive); that for `O=c1c2cc(N3CCOCC3)ccc2[nH]c(=S)n1Cc1ccccn1`, 23.5 µM. The same measure for `CCOc1ccc2nc(COC(=O)c3cccc([N+](=O)[O-])c3)c(C(C)=O)[n+]([O-])c2c1`: > 26 µM (inactive). Regarding `CC1(C)c2cc(O)ccc2OC1N1CCOCC1` (configuration not stated), the AC40 was > 26 µM (inactive).

On to `COc1cccc(NC(=O)CSc2nc(N)cc(N)n2)c1`, for which the AC40 was > 26 µM (inactive).

Turning to `Cc1ccc(C(=O)OCC(=O)c2ccc(Cl)s2)s1`, the AC40 is 15.1 µM.

Take `COc1cc2[nH]c(=S)n(Cc3ccco3)c(=O)c2cc1OC`: the AC40 was > 26 µM (inactive). The same measure for `COc1ccc(NS(=O)(=O)c2cc(NC(=O)c3cnccn3)ccc2N2CCCC2)cc1`: > 26 µM (inactive); for `COc1ccc(/C=C(\C#N)C(=O)Nc2cccc(C)n2)cc1`: > 26 µM (inactive). The same measure for `CC(=O)c1ccc(NC(=S)N2C(C)CCCC2C)cc1` (configuration not stated): 20.8 µM.

In the case of `CC(C)(C)C(=O)NCC12C=CC(O1)C1C(=O)N(c3ccccc3)C(=O)C12` (configuration not stated), the AC40 is > 26 µM (inactive).

For `CCOC(=S)SCC(=O)Nc1nc(C)c(C)s1`, the AC40 is 12.4 µM. The result for `O=C(c1ccc[nH]c1=S)N1CCN(S(=O)(=O)c2ccc(Br)cc2Cl)CC1` reads > 26 µM (inactive); that for `CCOC(=O)c1sc2nc(C)nc(SCC(=O)NC3CCS(=O)(=O)C3)c2c1C` (configuration not stated), > 26 µM (inactive). The same measure for `C/C(CC(=O)Nc1cccc2c1CCCC2)=N\NC(=O)COc1ccccc1`: > 26 µM (inactive). The result for `Cn1c(CCC(=O)OCC(=O)Nc2ccc(Oc3ccccc3)cc2)nc(=O)c2ccccc21` reads > 26 µM (inactive); that for `Cc1ccc(CSc2nc3ccccc3c(=O)n2CCCC(=O)NCc2ccco2)cc1`, > 26 µM (inactive); that for `CN(NC1OC(=O)c2ccccc21)c1ncc(Cl)cc1C(F)(F)F` (configuration not stated), > 26 µM (inactive). On to `COC(=O)c1ccc(N(CC(=O)NC2CCCCC2)C(=O)CNC(=O)c2ccco2)cc1`, for which the AC40 is > 26 µM (inactive).

`CCN(CCCNC(=O)CNC(=O)c1nn(-c2ccc(OC)cc2OC)c(=O)c2ccccc12)c1cccc(C)c1`: the AC40 was > 26 µM (inactive). In the case of `COc1cc(CNCC(O)c2ccccc2)ccc1OCc1ccc(Cl)nc1` (configuration not stated), the AC40 is > 26 µM (inactive). The result for `CC1=CC(=O)C=C(C)C1=NOC(=O)/C=C\c1ccccc1` reads > 26 µM (inactive).

In the case of `CNc1nc(-c2ccccc2)cc(C)c1S(C)(=O)=O`, the AC40 is > 26 µM (inactive). The result for `Cn1c(Cn2nnc3ccccc32)nnc1SCC(=O)c1ccccc1F` reads 20.6 µM.

For `COc1ccc(/C=C/C(=O)OC2CCCN(C)C2)cc1` (configuration not stated), the AC40 was 12.6 µM. The same measure for `O=C(NC1CCSc2ccccc21)c1ccccc1Cl` (configuration not stated): 6.46 µM; for `CC1CC(C)(C)N(C(=O)NC2CCCCC2)c2ccccc21` (configuration not stated): 12.9 µM; for `CC(CCc1ccccc1)NC(=O)CN1CCc2ccccc2C1` (configuration not stated): > 26 µM (inactive).

For `CCCN(CC(=O)Nc1ccc(Cl)cc1Cl)C(=O)/C=C/c1ccco1`, the AC40 is 13 µM.

In the case of `S=c1sc2c(Cl)ncnc2n1-c1ccccc1`, the AC40 was > 12 µM (inactive).

Consider `CCOc1cc(N2CCOCC2)c(OCC)cc1NC(=O)Cc1cccc2ccccc12`, for which the AC40 was > 26 µM (inactive). The result for `COc1ccccc1C(=O)CSc1nnc(-c2ccco2)o1` reads 11.7 µM; that for `CCC(Sc1nc2cc3c(cc2c(=O)n1Cc1ccco1)OCO3)C(=O)NCCOC` (configuration not stated), > 26 µM (inactive); that for `Cc1ccc(-n2c(SCC(=O)Nc3cc(S(=O)(=O)N4CCOCC4)ccc3Cl)nc3ccccc3c2=O)cc1`, 16 µM. In the case of `ON=C1c2ccccc2-c2ccccc21`, the AC40 was 15.8 µM. The same measure for `COc1cccc(NC(=S)NC(=O)c2c(Cl)c(C)nn2C)c1`: 2.51 µM. The same measure for `CCOC(=O)C(=O)/C(C#N)=C/Nc1ccccc1`: > 26 µM (inactive). The result for `COc1ccc(C2C(C(C)=O)=C(O)C(=O)N2c2ccc(C)cc2)cc1` (configuration not stated) reads > 26 µM (inactive); that for `COCCCNc1nc2nonc2nc1N1CCN(Cc2cccc(C)c2)CC1`, > 26 µM (inactive); that for `CCOC(=O)c1c(-c2ccc(C)cc2)cn2ccccc12`, > 26 µM (inactive).

As to `S=C1NC(c2ccccc2)=NCN1c1ccc(Br)cc1`, the AC40 is 8.41 µM. The result for `Cn1c(CO)cnc1SCC(=O)c1ccc(Cl)cc1` reads 8.6 µM. The same measure for `O=C(N/N=C/c1ccc(-c2cccc([N+](=O)[O-])c2)o1)c1ccccc1O`: > 26 µM (inactive); for `O=C1Nc2ccccc2/C1=C/c1cnc[nH]1`: > 26 µM (inactive). The result for `O=C(c1ccc2c(=O)n(C3CCCC3)c(=S)[nH]c2c1)N1CCc2ccccc21` reads > 26 µM (inactive). On to `Cc1ccc(-c2c3c(=O)n(C)c(=O)n(C)c3cn2-n2cnnc2)cc1`, for which the AC40 is 15.1 µM. `O=C(NCc1ccco1)C1CC(O)CN1C(=O)Nc1ccccc1` (configuration not stated): the AC40 was > 26 µM (inactive). The result for `CCOC(=O)C1=NN(C(=O)c2ccccc2)C(O)(c2ccc(C)cc2)C1` (configuration not stated) reads 8.91 µM; that for `C/C(=C\C(=O)Nc1cscc1C)C(=O)O`, > 26 µM (inactive).

Regarding `O=C(CCC1CCCN(C(=O)c2ccc3cc[nH]c3c2)C1)NCc1ccc(F)c(F)c1` (configuration not stated), the AC40 was 14.8 µM.

With `Cc1ccc(O)c(NC(=O)c2onc(C)c2Cl)c1`, the AC40 is > 26 µM (inactive).

Consider `O=c1[nH]n(CC2COC3(CCCCC3)O2)c(=O)c2ccccc12` (configuration not stated), for which the AC40 is 5.22 µM. The result for `CCC(C)n1c(SCC(=O)NC(=O)Nc2ccc3c(c2)OCCO3)nc2ccccc2c1=O` (configuration not stated) reads > 26 µM (inactive). The same measure for `CCOC(=O)CSc1cc(-c2ccccc2)nc2ncnn12`: > 26 µM (inactive); for `Cc1ccc2cccc(NC(=O)C(F)(F)F)c2n1`: > 26 µM (inactive); for `O=C1/C(=C\c2ccc(Br)o2)Cc2ccccc21`: 10.7 µM. The result for `COC(=O)C1CCN(C(=O)COC(=O)c2ccc(OC)c(S(=O)(=O)N3CCCc4ccccc43)c2)CC1` reads 9.15 µM; that for `CCc1[nH]nc2c1C1(CCN(C(=O)OCc3ccccc3)CC1)C(C#N)=C(N)O2`, > 26 µM (inactive).

With `O=C(NC(=S)Nc1ccccc1C(F)(F)F)c1ccccc1F`, the AC40 was 19.3 µM. `Nc1ccc(Sc2cnn(-c3ccccc3)c(=O)c2Cl)cc1`: the AC40 was 8.39 µM. The same measure for `Cc1ccccc1N1CCN(S(=O)(=O)Cc2ccccc2)CC1`: > 26 µM (inactive). The same measure for `Cc1nnc(Sc2nc3c(c(=O)n(C)c(=O)n3C)n2Cc2ccccc2Cl)s1`: > 26 µM (inactive); for `CN(Cc1ccccc1)C(=O)c1cc(-c2ccc(Br)cc2)on1`: 2.21 µM. The result for `Cn1c(C(=O)OC(C(=O)NC(C)(C)C)c2cccnc2)cc2sccc21` (configuration not stated) reads > 26 µM (inactive); that for `COc1cccc(Sc2ccccc2/C=N/NC(N)=O)c1`, > 26 µM (inactive).

Regarding `CCOC(=O)c1c(-c2ccc(C)o2)csc1NC(=O)CSc1nncs1`, the AC40 was 13.6 µM.

On to `CCN(CC)S(=O)(=O)c1ccc(C(=O)NN(C)C2=NS(=O)(=O)c3ccccc32)cc1`, for which the AC40 is > 26 µM (inactive). The result for `CCC(=O)N1CCN(c2ccc(NC(=O)COc3ccc(C)cc3C)cc2)CC1` reads > 26 µM (inactive); that for `COC(=O)c1ccc(CSc2ncnc3c2oc2ccccc23)o1`, > 26 µM (inactive); that for `COc1cccc(CNC(=O)Cn2nc(C)c([N+](=O)[O-])c2C)c1`, > 26 µM (inactive). The result for `N#C/C(=C\c1ccc(OCc2ccc(Cl)cc2)cc1)C(=O)Nc1cccc(C(=O)O)c1` reads 2.68 µM; that for `Cc1ccc(C(=O)n2cnnc2N)cc1`, > 26 µM (inactive). The result for `CCC1Oc2ccc(C)cc2N(Cc2cccc(C)c2)C1=O` (configuration not stated) reads 13.1 µM; that for `Cc1ccc(-c2nc3ncccn3c2Nc2ccccc2C)o1`, > 26 µM (inactive); that for `CCOc1ccc(-n2cc(C(=O)N3CCC(C)CC3)c3cc(OC)c(OC)cc3c2=O)cc1`, 25 µM.

For the compound `Cc1ccc(CNc2c(C=O)c(=O)[nH]c3ccccc23)cc1`, the AC40 is > 26 µM (inactive). The same measure for `COc1ccccc1CN1CC(C(=O)NCCc2ncccc2C)CCC1=O` (configuration not stated): 24.8 µM; for `Cc1ccc(=O)n(C(C(=O)NCc2ccco2)C(=O)c2ccc(F)cc2)c1` (configuration not stated): > 26 µM (inactive); for `O=C(CSc1ccc(Cl)cc1)N1CCN(c2c(Cl)cccc2[N+](=O)[O-])CC1`: 3.34 µM. In the case of `CC(=O)N=c1sccn1CC(=O)c1ccc([N+](=O)[O-])cc1`, the AC40 was > 26 µM (inactive). The result for `Cc1cc2oc3c(c(=O)c2cc1C)C(c1ccc(C(C)C)cc1)N(CCCN1CCOCC1)C3=O` (configuration not stated) reads > 26 µM (inactive); that for `CCOC(=O)c1c(C)n(-c2ccc(C)cc2)c2c(CC(C)=O)c(Br)c(OC)c(O)c12`, > 26 µM (inactive). The result for `O=c1[nH]c(N2CCN(c3ccccc3)CC2)nc2c1CCC2` reads > 26 µM (inactive). As for `COC(=O)c1cnc(N2CCCN(S(=O)(=O)c3ccc(C(F)(F)F)cc3)CC2)nc1C(F)(F)F`, the AC40 was > 26 µM (inactive). The same measure for `Cn1c(CCCOc2ccc(Cl)cc2Cl)nnc1SCC(=O)Nc1cccc(F)c1`: 20.2 µM; for `O=C(CSc1nnc(-c2c[nH]c3ccccc23)n1-c1ccc(F)cc1)NCc1ccco1`: 13.5 µM. Consider `CCCCN(CCCNC(=O)C1CCN(S(=O)(=O)CC)CC1)c1ccccc1`, for which the AC40 was 10.4 µM.
